Experimental data from EP4563620A1, “THREE-ARM POLYETHYLENE GLYCOL DERIVATIVE CONTAINING AMINO ACID RESIDUES” (Xiamen Sinopeg Biotech Co., Ltd., priority 2022, dated 2024).

Experiments:
[1] = system: human colon adenocarcinoma cell HT29; assay: Cytotoxicity assay, MTT staining; assay type: cell-based; details: HT-29, HT29, 10 nM, 48 h
Method: (§1) Cytotoxicity assay of PEGylated irinotecan E10-1 (wherein the polyethylene glycol component is derived from E4-1) was performed using MTT staining. A blank control group containing no drugs but only culture medium, a positive control group containing irinotecan, and an experimental group containing PEGylated irinotecan (E10-1) were respectively set up. The drug concentration of the positive control group and experimental group was 10 nM, with 6 replicate wells each, and the assay was repeated three times. Six types of cancer cells were selected as in vitro cancer cell models: human colon cancer cell COLO205, human colon adenocarcinoma cell HT29, human lung adenocarcinoma cell A549, pancreatic cancer cell MiaPaCa-2, human ovarian cancer cell A2780, and human ovarian adenocarcinoma cell OVCAR-3.
(§2) Cells were inoculated onto a 96-well plate at a density of 1×10^4 cells/well, with 100 µL of cell suspension added to each well. After the inoculation, the cells were incubated in a cell culture incubator at 37°C, 4% CO2 for 24 h. The old culture medium was aspirated, and then 100 µL of culture medium containing 10 nM E10-1 was added to each experimental group, 100 µL of culture medium containing 10 nM irinotecan was added to each positive control group, and 100 µL of fresh culture medium was added to the blank control group. After further incubation for 48 h, 20 µL of 5 mg/mL MTT in PBS buffer was added to each well. After incubating the cancer cells with MTT for 4 h, the mixture of culture medium and MTT buffer was aspirated, and then DMSO (150 µL/well) was added to dissolve the blue-purple crystalline product of formazan in viable cells. The 96-well plate was gently shaken until the crystalline product was fully dissolved, and then a microplate reader was used to measure the absorbance at 490 nm. [formula]

[2] = system: pancreatic cancer cell MiaPaCa-2; assay: Cytotoxicity assay, MTT staining; assay type: cell-based; details: Homo sapiens, MIA PaCa-2, MiaPaCa-2, 10 nM, 48 h
Method: as §1, §2

[3] = system: human ovarian adenocarcinoma cell OVCAR-3; assay: Cytotoxicity assay, MTT staining; assay type: cell-based; details: OVCAR-3, 10 nM, 48 h
Method: as §1, §2

[4] = system: human ovarian cancer cell A2780; assay: Cytotoxicity assay, MTT staining; assay type: cell-based; details: A2780, 10 nM, 48 h
Method: as §1, §2

[5] = system: human lung adenocarcinoma cell A549; assay: Cytotoxicity assay, MTT staining; assay type: cell-based; details: A549, 10 nM, 48 h
Method: as §1, §2

[6] = system: human colon cancer cell COLO205; assay: Cytotoxicity assay, MTT staining; assay type: cell-based; details: COLO 205, COLO205, 10 nM, 48 h
Method: as §1, §2

[7] = system: H22 mouse liver cancer cells; assay: Anti-tumor efficacy in vivo (transplanted solid tumor, tumor weight); details: H22 subcutaneous tumor in mice, tail vein injection on days 2 and 7 post-inoculation, tumors weighed after 2 weeks of administration
Method: The transplantation of animal tumors was adopted as the experimental method, with 6 mice per group, and H22 mouse liver cancer cells were inoculated subcutaneously into the right axilla of the mice to form solid tumors. Single-dose administrations via tail vein injection were performed on days 2 and 7 post-inoculation, respectively. After 2 weeks of administration, the mice were sacrificed via cervical dislocation, and the tumors were excised and weighed. Tumor Inhibition Rate = [G-H/G]*100% (G represents the average tumor weight of the blank control group, H represents the average tumor weight of the treatment group). Table 4. Results of Anti-tumor Effect

CCc1c2c(nc3ccc(OC(=O)N4CCC(N5CCCCC5)CC4)cc13)-c1cc3c(c(=O)n1C2)COC(=O)[C@]3(O)CC [irinotecan] gave a viability at 0.01 µM [1] of 74%, a viability at 0.01 µM [2] of 76% and a viability at 0.01 µM [3] of 75%. For the same molecule, the viability at 0.01 µM [4] was 73%, the viability at 0.01 µM [5] was 70% and the viability at 0.01 µM [6] was 76%. The “Tumor Inhibition Rate” value [7] was 30.3%.
